From the NIST ThermoML archive (doi:10.1016/j.jct.2013.12.025)

Test: refractive index (Na D-line) (dimensionless); xn = mol fraction of the nth substance listed
Settings: 101 kPa, Liquid, Standard Abbe refractometry

C=C[Si](C)(C)O[Si](C)(C)C=C [1,3-diethenyl-1,1,3,3-tetramethyldisiloxane] + CCc1ccccc1
refractive index
Settings | 283.15 K | 288.15 K | 293.15 K | 298.15 K | 303.15 K
x1 = 0.0501 | 1.49399 | 1.49133 | 1.48864 | 1.48591 | 1.48318
x1 = 0.1001 | 1.48737 | 1.48473 | 1.48204 | 1.47931 | 1.4766
x1 = 0.1499 | 1.48124 | 1.47856 | 1.47587 | 1.47319 | 1.47044
x1 = 0.2001 | 1.47548 | 1.47282 | 1.47013 | 1.46745 | 1.46472
x1 = 0.25 | 1.47011 | 1.46746 | 1.46476 | 1.46206 | 1.45934
x1 = 0.3 | 1.46506 | 1.46243 | 1.45974 | 1.45705 | 1.45432
x1 = 0.3499 | 1.46032 | 1.45769 | 1.45502 | 1.45233 | 1.4496
x1 = 0.4 | 1.45589 | 1.45324 | 1.45057 | 1.44786 | 1.44516
x1 = 0.4501 | 1.45171 | 1.44905 | 1.44639 | 1.44368 | 1.44097
x1 = 0.5 | 1.44774 | 1.44509 | 1.44243 | 1.43975 | 1.43705
x1 = 0.5503 | 1.44396 | 1.44135 | 1.43866 | 1.43599 | 1.43331
x1 = 0.6 | 1.44044 | 1.43779 | 1.43514 | 1.43246 | 1.42979
x1 = 0.6501 | 1.43706 | 1.43444 | 1.43177 | 1.42909 | 1.42643
x1 = 0.6999 | 1.43392 | 1.43128 | 1.4286 | 1.42594 | 1.42325
x1 = 0.7502 | 1.43084 | 1.4282 | 1.42555 | 1.42288 | 1.42022
x1 = 0.8001 | 1.42794 | 1.42531 | 1.42264 | 1.41999 | 1.41732
x1 = 0.85 | 1.42518 | 1.42258 | 1.41991 | 1.41723 | 1.41458
x1 = 0.8999 | 1.42257 | 1.41995 | 1.41729 | 1.41464 | 1.41198
x1 = 0.9498 | 1.42013 | 1.41752 | 1.41486 | 1.41219 | 1.40954
x1 = 1 | 1.41762 | 1.41498 | 1.41232 | 1.40969 | 1.40704

C=C[Si](C)(C)O[Si](C)(C)C=C [1,3-diethenyl-1,1,3,3-tetramethyldisiloxane] + COc1ccccc1
refractive index
Settings | 283.15 K | 288.15 K | 293.15 K | 298.15 K | 303.15 K
x1 = 0.0501 | 1.51284 | 1.51027 | 1.50766 | 1.50499 | 1.50234
x1 = 0.1 | 1.50406 | 1.5015 | 1.49885 | 1.49617 | 1.49356
x1 = 0.15 | 1.49596 | 1.49337 | 1.49073 | 1.48807 | 1.48543
x1 = 0.2004 | 1.48841 | 1.48578 | 1.48317 | 1.48051 | 1.47786
x1 = 0.2499 | 1.48153 | 1.47893 | 1.47631 | 1.47362 | 1.47098
x1 = 0.3 | 1.47505 | 1.47247 | 1.46982 | 1.46716 | 1.4645
x1 = 0.35 | 1.46908 | 1.46651 | 1.46384 | 1.46116 | 1.45851
x1 = 0.3997 | 1.46353 | 1.46092 | 1.45829 | 1.4556 | 1.45295
x1 = 0.4499 | 1.45831 | 1.45568 | 1.45303 | 1.45034 | 1.4477
x1 = 0.5001 | 1.45338 | 1.45077 | 1.44813 | 1.44544 | 1.44279
x1 = 0.5499 | 1.44883 | 1.4462 | 1.44358 | 1.44089 | 1.43823
x1 = 0.6 | 1.4445 | 1.44188 | 1.43925 | 1.43657 | 1.43393
x1 = 0.6499 | 1.44046 | 1.43782 | 1.43521 | 1.43252 | 1.42986
x1 = 0.6999 | 1.43664 | 1.43403 | 1.43139 | 1.4287 | 1.42604
x1 = 0.7499 | 1.43304 | 1.43043 | 1.42778 | 1.4251 | 1.42244
x1 = 0.8 | 1.42961 | 1.42699 | 1.42434 | 1.42166 | 1.41901
x1 = 0.8499 | 1.42639 | 1.42377 | 1.42112 | 1.41846 | 1.4158
x1 = 0.8998 | 1.42333 | 1.4207 | 1.41806 | 1.4154 | 1.41277
x1 = 0.9499 | 1.42042 | 1.41779 | 1.41515 | 1.41251 | 1.40987
x1 = 1 | 1.41766 | 1.415 | 1.41236 | 1.4097 | 1.40707

C=C[Si](C)(C)O[Si](C)(C)C=C [1,3-diethenyl-1,1,3,3-tetramethyldisiloxane] + Clc1ccccc1
refractive index
Settings | 283.15 K | 288.15 K | 293.15 K | 298.15 K | 303.15 K
x1 = 0.05 | 1.51909 | 1.51642 | 1.51366 | 1.51088 | 1.50802
x1 = 0.0998 | 1.50933 | 1.5066 | 1.50385 | 1.50103 | 1.49821
x1 = 0.15 | 1.50029 | 1.49759 | 1.49487 | 1.492 | 1.48923
x1 = 0.1996 | 1.49216 | 1.48946 | 1.48671 | 1.48389 | 1.48103
x1 = 0.25 | 1.4846 | 1.48187 | 1.47913 | 1.47637 | 1.47349
x1 = 0.2999 | 1.47766 | 1.47495 | 1.47223 | 1.46943 | 1.46663
x1 = 0.35 | 1.47122 | 1.46854 | 1.46582 | 1.46303 | 1.46019
x1 = 0.3999 | 1.46527 | 1.46262 | 1.4599 | 1.45712 | 1.45432
x1 = 0.4496 | 1.45981 | 1.45712 | 1.45441 | 1.45167 | 1.44883
x1 = 0.4999 | 1.45464 | 1.45197 | 1.44926 | 1.4465 | 1.4437
x1 = 0.5499 | 1.44985 | 1.44716 | 1.44446 | 1.4417 | 1.43891
x1 = 0.6 | 1.44533 | 1.44268 | 1.43999 | 1.43722 | 1.43446
x1 = 0.6469 | 1.44138 | 1.4387 | 1.43603 | 1.43329 | 1.43053
x1 = 0.6998 | 1.43721 | 1.43455 | 1.43185 | 1.42911 | 1.42638
x1 = 0.7499 | 1.43345 | 1.4308 | 1.42812 | 1.42542 | 1.4227
x1 = 0.7997 | 1.42994 | 1.42729 | 1.42463 | 1.42193 | 1.41923
x1 = 0.8499 | 1.42661 | 1.42395 | 1.42129 | 1.41862 | 1.41593
x1 = 0.8996 | 1.4235 | 1.42083 | 1.41817 | 1.4155 | 1.41283
x1 = 0.9497 | 1.4205 | 1.41785 | 1.4152 | 1.41257 | 1.40991
x1 = 1 | 1.41767 | 1.415 | 1.41237 | 1.40973 | 1.40708

C=C[Si](C)(C)O[Si](C)(C)C=C [1,3-diethenyl-1,1,3,3-tetramethyldisiloxane] + Fc1ccccc1
refractive index
Settings | 283.15 K | 288.15 K | 293.15 K | 298.15 K | 303.15 K
x1 = 0.05 | 1.46591 | 1.46302 | 1.4601 | 1.45724 | 1.45427
x1 = 0.1 | 1.46088 | 1.45799 | 1.4551 | 1.45222 | 1.44927
x1 = 0.15 | 1.45637 | 1.45349 | 1.45063 | 1.44775 | 1.44482
x1 = 0.1993 | 1.45237 | 1.44949 | 1.44664 | 1.44378 | 1.44083
x1 = 0.25 | 1.44858 | 1.44572 | 1.44288 | 1.44002 | 1.43708
x1 = 0.2999 | 1.44521 | 1.44238 | 1.43954 | 1.43671 | 1.43382
x1 = 0.35 | 1.44212 | 1.43928 | 1.43649 | 1.43366 | 1.43075
x1 = 0.4 | 1.43929 | 1.43648 | 1.43368 | 1.43086 | 1.42798
x1 = 0.45 | 1.43671 | 1.4339 | 1.43109 | 1.42829 | 1.42546
x1 = 0.5 | 1.43427 | 1.43147 | 1.42871 | 1.42592 | 1.42309
x1 = 0.5501 | 1.43205 | 1.42925 | 1.42651 | 1.42374 | 1.42092
x1 = 0.6 | 1.42996 | 1.42721 | 1.42446 | 1.42171 | 1.41891
x1 = 0.6501 | 1.42804 | 1.4253 | 1.42257 | 1.41982 | 1.41705
x1 = 0.7 | 1.42627 | 1.42353 | 1.4208 | 1.41808 | 1.41532
x1 = 0.7501 | 1.42458 | 1.42185 | 1.41913 | 1.41642 | 1.41369
x1 = 0.8 | 1.42302 | 1.42031 | 1.41762 | 1.41493 | 1.41219
x1 = 0.85 | 1.42152 | 1.41883 | 1.41615 | 1.41349 | 1.4108
x1 = 0.8998 | 1.42015 | 1.41747 | 1.4148 | 1.41213 | 1.40945
x1 = 0.95 | 1.41882 | 1.41617 | 1.41352 | 1.41087 | 1.40819
x1 = 1 | 1.41758 | 1.41493 | 1.41227 | 1.40963 | 1.40695
